Results taken from patent publication US20120060243A1, “Herbicide-Resistant AHAS-Mutants and Methods of Use” (priority 2008, published 2012).
Read-outs that look alike come from different tables or passages of the source.

Key:
Assay type in all cases: in vivo, Brassica napus
[1] = test system: AHASL1A-S653N, S653N (Ho); conditions: 18 Days After Treatment, line AHASL1A-S653N; for Mean Percent Crop Phytotoxicity (% Crop Injury): field, 2-4 leaf stage
Description: (§1) Hand-crossed hybrids were produced in the greenhouse between two IMI-tolerant spring Brassica napus parental lines: “BnCL131A1” (homozygous for the A genome IMI-tolerant mutation AHASL1A-A122(At)T-S653(At)N) and “PM1PM2” (homozygous for the A genome AHAS-inhibitor tolerant mutation AHASL1A-W574(At)L (PM2) plus the C genome AHAS-inhibitor tolerant mutation AHASL1C-S653(At)N(PM1)). The resulting heterozygous hand-crossed hybrid line, “PM1PM2/BnCL131A 1” (heterozygous for the stacked mutations: AHASL1A-A122(At)T-S653(At)N, AHASL1A-W574(At)L (PM2), AHASL1C-S653(At)N(PM1)) was field tested together with lines each containing only one AHAS-inhibitor tolerant mutation (homozygous or heterozygous) and several spring Brassica napus checks.
(§2) The three repetition trial was conducted in Simcoe, N. Dak., and used a randomized split block design. The trial was designed to measure the percent phytotoxicity (% crop injury) of the different entries under 5 different imidazolinone herbicide treatment rates. Plants were sprayed at the 2-4 leaf stage at a volume of 100 liters/ha. The imidazolinone herbicide rates used were as follows (Imazamox=BEYOND™ 120 g/I LC (BAS 72001H); NIS=INDUCE™ 90 (90% non-ionic surfactant; Helena Chemical Co., Collierville, Tenn.):
(§3) Crop Injury Ratings were determined in the field by assessing each plot in the trial for the level of phytotoxicity (percent crop injury) on a scale from 0-100% at 18 days after treatment. Mean values for each entry across the three replications along with their statistical significance (ANOVA) are presented in Table 6 (Ho=homozygous; He=heterozygous). Each value presented in Table 6 is the mean of three replications.
(§4) The percent phytotoxicity (% crop injury) ratings were transposed into Herbicide Tolerance ratings by subtracting the percent crop injury rating (Table 6) for each line from 100% to obtain the percent herbicide tolerance (Table 7) (Ho=homozygous; He=heterozygous).

[2] = test system: BnCL131A1 (He), A122T-S653N (He); conditions: 18 Days After Treatment, line BnCL131A1 (He); for Mean Percent Crop Phytotoxicity (% Crop Injury): field, 2-4 leaf stage
Description: as §1, §2, §3, §4

[3] = test system: PM2 (AHASL1A-PM2), W574L (Ho); conditions: 18 Days After Treatment, line PM2 (AHASL1A-PM2); for Mean Percent Crop Phytotoxicity (% Crop Injury): field, 2-4 leaf stage
Description: as §1, §2, §3, §4

[4] = test system: BnCL131A1 (Ho), A122T-S653N (Ho); conditions: 18 Days After Treatment, line BnCL131A1 (Ho); for Mean Percent Crop Phytotoxicity (% Crop Injury): field, 2-4 leaf stage
Description: as §1, §2, §3, §4

[5] = test system: BnCL97 (BN-02) (AHASIII S653N); test: Field test herbicide injury, Minot; conditions: 200 g ai/ha, 15 days after treatment, S653N single mutant BnCL97 (BN-02)
Description: (§5) B. napus plants from the following spring oilseed rape lines: BN-02 (wild type), BN-T (wild type), BnCL131A1 in a BN-02 background genotype (AHAS III A122T S653N double mutant), BnCL120C7 in a BN-02 background genotype (BnAHASIII A122T), BnCL97 in a BN-02 background genotype (BnAHASIII S653N), PM1/PM2 in a BN-T background (two gene check: AHAS I S653N & AHAS III W574L), PM1 in a BN-T background (one gene check: AHAS I S653N) and PM2 in a BN-T background (one gene check: AHAS III W574L) were field tested at a site near Minot, N. Dak. Lines were planted in 5 m long single row plots and arranged in a two factorial split plot design with 3 repetitions and 4 treatments (0 g ai/ha imazamox, 50 g ai/ha imazamox, 100 g ai/ha imazamox and 200 g ai/ha imazamox). Plants were sprayed at the 2-4 leaf stage with the above mentioned imazamox treatments. The imazamox product (Beyond 120 g/L LC+0.25% (v/v) non-ionic surfactant) was diluted in 20 gallons per acre (or 200 liters/ha) and applied using a tractor mounted boom.
(§6) Herbicide injury was evaluated 15 days after treatment (DAT) on a per plot basis using a scale from 0 to 100%, where 0 was no injury and 100% was complete plant death.

[6] = test system: BnCL131A1 (BN-02) (AHAS III A122T, S653N); test: Field test herbicide injury, Minot; conditions: 200 g ai/ha
Description: as §5, §6

[7] = test system: BNCL120C7 (BN-02) (AHASIII A122T); test: Field test herbicide injury, Minot; conditions: 200 g ai/ha, 15 days after treatment, A122T single mutant BNCL120C7 (BN-02)
Description: as §5, §6

[8] = mean over 0, 35, 70, 140, 210 g ai/ha (N 15)

COCc1cnc(C2=NC(C)(C(C)C)C(=O)N2)c(C(=O)O)c1 (stereo not drawn) [imazamox]
Mean Percent Crop Phytotoxicity (% Crop Injury) ([1]; 70 g ai/ha + 0.25% (v/v) NIS): 78.33%
Mean Percent Herbicide Tolerance (100% minus percent crop injury) ([1]; 70 g ai/ha): 21.7%
Mean Percent Crop Phytotoxicity (% Crop Injury) ([1]; 210 g ai/ha + 0.25% (v/v) NIS): 90%
Mean Percent Herbicide Tolerance (100% minus percent crop injury) ([1]; 210 g ai/ha): 10.0%
Mean Percent Crop Phytotoxicity (% Crop Injury), Mean over rates [1, 8]: 64.33%
Mean Percent Crop Phytotoxicity (% Crop Injury) ([2]; 35 g ai/ha + 0.25% (v/v) NIS): 33.33%
Mean Percent Herbicide Tolerance (100% minus percent crop injury) ([2]; 35 g ai/ha): 66.7%
Mean Percent Crop Phytotoxicity (% Crop Injury) ([2]; 70 g ai/ha + 0.25% (v/v) NIS): 60%
Mean Percent Herbicide Tolerance (100% minus percent crop injury) ([2]; 70 g ai/ha): 40.0%
Mean Percent Crop Phytotoxicity (% Crop Injury) ([2]; 140 g ai/ha + 0.25% (v/v) NIS): 80%
Mean Percent Herbicide Tolerance (100% minus percent crop injury) ([2]; 140 g ai/ha): 20.0%
Mean Percent Crop Phytotoxicity (% Crop Injury) ([2]; 210 g ai/ha + 0.25% (v/v) NIS): 73.33%
Mean Percent Herbicide Tolerance (100% minus percent crop injury) ([2]; 210 g ai/ha): 26.7%
Mean Percent Crop Phytotoxicity (% Crop Injury), Mean over rates [2, 8]: 49.33%
Mean Percent Crop Phytotoxicity (% Crop Injury) ([3]; 35 g ai/ha + 0.25% (v/v) NIS): 36.67%
Mean Percent Herbicide Tolerance (100% minus percent crop injury) ([3]; 35 g ai/ha): 63.3%
Mean Percent Crop Phytotoxicity (% Crop Injury) ([3]; 70 g ai/ha + 0.25% (v/v) NIS): 46.67%
Mean Percent Herbicide Tolerance (100% minus percent crop injury) ([3]; 70 g ai/ha): 53.3%
Mean Percent Crop Phytotoxicity (% Crop Injury) ([3]; 140 g ai/ha + 0.25% (v/v) NIS): 83.33%
Mean Percent Herbicide Tolerance (100% minus percent crop injury) ([3]; 140 g ai/ha): 16.7%
Mean Percent Crop Phytotoxicity (% Crop Injury) ([3]; 210 g ai/ha + 0.25% (v/v) NIS): 80%
Mean Percent Herbicide Tolerance (100% minus percent crop injury) ([3]; 210 g ai/ha): 20.0%
Mean Percent Crop Phytotoxicity (% Crop Injury), Mean over rates [3, 8]: 49.33%
Mean Percent Crop Phytotoxicity (% Crop Injury) ([4]; 35 g ai/ha + 0.25% (v/v) NIS): 16.67%
Mean Percent Herbicide Tolerance (100% minus percent crop injury) ([4]; 35 g ai/ha): 83.3%
Mean Percent Crop Phytotoxicity (% Crop Injury) ([4]; 70 g ai/ha + 0.25% (v/v) NIS): 31.67%
Mean Percent Herbicide Tolerance (100% minus percent crop injury) ([4]; 70 g ai/ha): 68.3%
Mean Percent Crop Phytotoxicity (% Crop Injury) ([4]; 140 g ai/ha + 0.25% (v/v) NIS): 43.33%
Mean Percent Herbicide Tolerance (100% minus percent crop injury) ([4]; 140 g ai/ha): 56.7%
Mean Percent Crop Phytotoxicity (% Crop Injury) ([4]; 210 g ai/ha + 0.25% (v/v) NIS): 55%
Mean Percent Herbicide Tolerance (100% minus percent crop injury) ([4]; 210 g ai/ha): 45.0%
Mean Percent Crop Phytotoxicity (% Crop Injury), Mean over rates [4, 8]: 29.33%
amount of tolerance (100% minus crop injury) [5]: 17%
amount of tolerance (100% minus crop injury) ([6]; field, 15 days after treatment, double mutant line BnCL131A1 (BN-02)): 62%
expected tolerance if additive (A122T plus S653N) ([6]; sum of tolerances of the two single mutant lines): 37%
amount of tolerance (100% minus crop injury) [7]: 20%
